Laboratory results as given in US20220023289A1, “Application Of Pyrroloquinoline Quinone In Preparation Of Medicament Used For Preventing And Treating Acute Altitude Sickness And Acute Altitude Hypoxia Injury” (priority 2018, published 2022).

What was measured:
[1] = system: rats exposed to acute altitude hypoxia; assay: Lipid metabolism in rats exposed to acute altitude hypoxia; assay type: in vivo, Wistar rat
Description: (§1) Select healthy Wistar rats weight 160-200 g, half female and half male. After feeding for 3 days, these Wistar rats are randomly divided into ten groups according to their body weight, each group has 16±2 rats. The groups are divided as follows: five groups of the hypoxic exposure drug test group, respectively, are given 0.91 mg/kg, 1.83 mg/kg, 3.66 mg/kg, 7.31 mg/kg, and 14.63 mg/kg drugs. […] After continuous intragastric administration for 7 days, the animals in the hypoxic exposure group are simultaneously put into the decompression and hypoxia compound experimental chamber, the hatch is closed, and the pressure is reduced at a speed of 10 m/s. After being raised to an altitude of 6000 m and maintained for 8 hours, the speed in 10 m/s drops is reduced to normal altitude, open the hatch, and then take out the animal, collect blood samples (after standing for 1 hour, the supernatant is centrifuged and stored at −20° C.), and liver tissue samples. Detection indicator includes body weight, serum blood glucose, ATP, lactic acid, endothelin, nitric oxide, SOD, CO, MDA related to oxidative stress, and total protein, albumin, triglycerides, total cholesterol, high-density lipoprotein cholesterol, low-density lipoprotein cholesterol, glutamic pyruvic transaminase, total bilirubin, gluamic oxalacetic transaminase, serum urea nitrogen, creatinine, uric acid, lactate dehydrogenase, creatine kinase, α-hydroxybutyrate dehydrogenase; liver ATP, hepatic glycogen. Except that the formal oxygen control animal group is not put into the decompression and hypoxia compound experimental chamber, other experimental conditions and detection indicators are the same.
(§2) Measure blood glucose, total protein, albumin, triglycerides, total cholesterol, high-density lipoprotein cholesterol, low-density lipoprotein cholesterol, glutamic-pyruvic transaminase, total bilirubin, glutamic oxalacetic transaminase, serum urea nitrogen, creatinine, uric acid, lactate dehydrogenase, creatine kinase, α-hydroxybutyrate dehydrogenase, blood homocysteine by using an automatic blood biochemical analyzer.

[2] = system: rats with acute altitude hypoxia injury; assay: Oxidative stress indexes of rats with acute altitude hypoxia injury; assay type: in vivo, Wistar rat
Source text: Operate according to the instructions, and then measure the absorbance value of each tube, and afterwards calculate the content of malondialdehyde in the sample to be tested according to the formula. […] The latter oxidizes hydroxylamine to form nitrite. It appears purplish red under the action of chromogenic agent. Measure its absorbance by a visible light spectrophotometer. When the measured sample contains superoxide dismutase, it has specific inhibitory effect on superoxide anion free radicals, make formed nitrite reduced. […] The superoxide dismutase activity in the tested sample can be calculated by formula calculation. […] The latter can form a stable complex with phenanthrophins and measure its antioxidant capacity by colorimetry. Operate according to the kit instructions, measure the absorbance of each tube at a wavelength of 520 nm, and then calculate the total antioxidant capacity in the sample to be tested according to the formula.

[3] = system: rats exposed to acute altitude hypoxia; assay: Renal function in rats exposed to acute altitude hypoxia; assay type: in vivo, Wistar rat; settings: for Creatinine / Uric acid: 0.11 g/kg
Description: as §1, §2

[4] = Rat body weight before the acute decompression hypoxia experiment (intragastric 7 days)
Description: as §1

[5] = system: rats exposed to acute altitude hypoxia; assay: Blood glucose in rats exposed to acute altitude hypoxia (6000 m, 8 h, after 7 days intragastric); assay type: in vivo, Wistar rat; settings: for Blood sugar: 0.11 g/kg
Description: as §1, §2

[6] = system: rats exposed to acute altitude hypoxia; assay: Liver ATP and glycogen in rats exposed to acute altitude hypoxia; assay type: in vivo, Wistar rat
Description: Determination of adenosine triphosphate (ATP): Perform enzyme-linked immunosorbent assay by double-antibody one-step sandwich method. To the coated microwells pre-coated with rat adenosine triphosphate (ATP) capture antibody, add in sequence the specimens, standard, and HRP-labeled detection antibody, and then incubate and wash thoroughly. Use a substrate TMB for color development, TMB is converted into blue under the catalysis of peroxidase and converted into the final yellow color under the action of acid. The color intensity is positively correlated with the rat adenosine triphosphate (ATP) in the sample. […] Determination of liver glycogen (GC): Perform enzyme-linked immunosorbent assay by double-antibody one-step sandwich method. To the coated microwells pre-coated with rat liver glycogen (GC) capture antibody, add in sequence the specimens, standard, and HRP-labeled detection antibody, and then incubate and wash thoroughly. Use a substrate TMB for color development, TMB is converted into blue under the catalysis of peroxidase and converted into the final yellow color under the action of acid. The color intensity is positively correlated with the rat liver glycogen (GC) in the sample.

[7] = female rats, hypoxia, 0.11 g/kg
[8] = female rats, normoxia, 0.11 g/kg

CC(=O)Nc1nnc(S(N)(=O)=O)s1 [Acetazolamide, reference compound]
High density lipoprotein cholesterol [1, 7]: 1.55 ± 0.19 mmol/L | Low density lipoprotein cholesterol [1, 7]: 0.17 ± 0.04 mmol/L | Total cholesterol [1, 7]: 2.02 ± 0.20 mmol/L | effect on low-density lipoprotein cholesterol ([1]; female rats, normoxia): no significant effects | effect on total cholesterol and high-density lipoprotein cholesterol ([1]; female rats, normoxia): can increase | High density lipoprotein cholesterol [1, 8]: 1.67 ± 0.07 mmol/L | Low density lipoprotein cholesterol [1, 8]: 0.16 ± 0.02 mmol/L | Total cholesterol [1, 8]: 2.14 ± 0.10 mmol/L | effect on total cholesterol, low-density and high-density lipoprotein cholesterol ([1]; hypoxia exposed female rats): increasing | effect on total, high-density and low-density lipoprotein cholesterol ([1]; male rats): no significant effect | effect on triglycerides ([1]; male rats exposed to hypoxia): is not found | High density lipoprotein cholesterol ([1]; male rats, hypoxia, 0.11 g/kg): 1.39 ± 0.14 mmol/L | Low density lipoprotein cholesterol ([1]; male rats, hypoxia, 0.11 g/kg): 0.21 ± 0.05 mmol/L | Total cholesterol ([1]; male rats, hypoxia, 0.11 g/kg): 1.88 ± 0.21 mmol/L | Triglycerides ([1]; male rats, hypoxia, 0.11 g/kg): 1.05 ± 0.49 mmol/L | Endo Dialdehyde [2, 7]: 13.09 ± 2.13 nmol/L | Superoxide dismutase [2, 7]: 57.11 ± 3.40 U/ml | Total antioxidants [2, 7]: 10.36 ± 0.81 U/ml | Endo Dialdehyde [2, 8]: 14.12 ± 0.32 nmol/L | Superoxide dismutase [2, 8]: 50.88 ± 3.34 U/ml | Total antioxidants [2, 8]: 10.31 ± 0.20 U/ml | effect on serum superoxide dismutase activity ([2]; hypoxia exposed female rats): increasing | effect on serum total antioxidants and malondialdehyde ([2]; hypoxia exposed female rats): no significant effects | effect on serum superoxide dismutase activity ([2]; hypoxia exposed male rats): increasing | effect on serum total antioxidants and malondialdehyde ([2]; male rats): no significant effects | Malonaldehyde ([2]; male rats, hypoxia, 0.11 g/kg): 3.24 ± 1.52 nmol/L | Superoxide dismutase ([2]; male rats, hypoxia, 0.11 g/kg): 182.51 ± 4.46 U/ml | Creatinine ([3]; female rats, hypoxia): 18.78 ± 1.96 µmol/L | Uric acid ([3]; female rats, hypoxia): 77.80 ± 17.31 µmol/L | effect on serum urea nitrogen and creatinine values ([3]; female rats, normoxia): increasing | effect on serum uric acid level ([3]; female rats, normoxia): reducing | Creatinine ([3]; female rats, normoxia): 19.67 ± 0.32 µmol/L | Uric acid ([3]; female rats, normoxia): 82.00 ± 15.10 µmol/L | effect on serum urea nitrogen and creatinine value ([3]; hypoxia exposed female rats): increasing | effect on serum uric acid level ([3]; hypoxia exposed female rats): decreasing | effect on serum creatinine ([3]; hypoxia exposed male rats): no significant effect | effect on serum urea nitrogen content ([3]; hypoxia exposed male rats): increase | effect on serum uric acid level ([3]; hypoxia exposed male rats): can reduce | Creatinine ([3]; male rats, hypoxia): 25.01 ± 2.48 µmol/L | Uric acid ([3]; male rats, hypoxia): 81.86 ± 11.05 µmol/L | rat body weight Female 1 day ([4]; 0.11 g/kg): 153.4 ± 6.1 g | rat body weight Female 7 days ([4]; 0.11 g/kg): 163.3 ± 6.76 g | rat body weight Male 1 day ([4]; 0.11 g/kg): 172.4 ± 6.8 g | rat body weight Male 7 days ([4]; 0.11 g/kg): 189.1 ± 11.8 g | effect on body weight ([4]; female rats, 7 days): no significant effects | effect on weight ([4]; male rats, 7 days): decreased | effect on blood glucose ([5]; acute hypoxia exposed female rats): no significant effects | Blood sugar ([5]; female rats, hypoxia): 7.63 ± 0.76 mmol/L | effect on blood glucose ([5]; female rats, normoxia): lowering the blood glucose | Blood sugar ([5]; female rats, normoxia): 7.18 ± 0.39 mmol/L | effect on blood glucose level ([5]; male rats): no significant effects | Blood sugar ([5]; male rats, hypoxia): 8.87 ± 1.24 mmol/L | effect on liver ATP and glycogen content ([6]; female rats, after hypoxia exposure and normoxia): no significant effects | liver Glycogen [6, 7]: 3.71 ± 0.27 ng/mL | liver ATP [6, 8]: 1.39 ± 0.54 µg/mL | liver Glycogen [6, 8]: 2.75 ± 1.13 ng/mL | effect on liver ATP and glycogen content ([6]; male rats): no significant effects | liver Glycogen ([6]; male rats, hypoxia, 0.11 g/kg): 2.14 ± 0.21 ng/mL
